Assay results published in the NIST ThermoML archive (doi:10.1021/acs.jced.8b01048).

Test: xn = mol fraction of the nth substance listed
Details: 100 kPa, Liquid, Vibrating tube method

CC(=O)[O-].CCn1cc[n+](C)c1 [1-ethyl-3-methylimidazolium acetate] + C[S+](C)[O-]
mass density [kg/m3]
Details | 293.15 K | 303.15 K | 313.15 K | 323.15 K | 333.15 K | 343.15 K | 353.15 K | 363.15 K | 373.15 K
x2 = 0 | 1101.7 | 1095.6 | 1089.6 | 1083.7 | 1077.7 | 1071.8 | 1065.9 | 1060 | 1054.2
x2 = 0.053 | 1102.4 | 1096.3 | 1090.3 | 1084.2 | 1078.1 | 1072 | 1066.1 | 1060.1 | 1054.1
x2 = 0.103 | 1103 | 1096.9 | 1090.8 | 1084.5 | 1078.3 | 1072.2 | 1066.1 | 1060 | 1054
x2 = 0.196 | 1103.8 | 1097.5 | 1091.2 | 1084.8 | 1078.4 | 1072.2 | 1065.9 | 1059.8 | 1053.6
x2 = 0.301 | 1104.9 | 1098.4 | 1091.8 | 1085.2 | 1078.7 | 1072.1 | 1065.6 | 1059.3 | 1052.9
x2 = 0.401 | 1105.8 | 1099 | 1092.2 | 1085.3 | 1078.7 | 1071.8 | 1065.2 | 1058.4 | 1051.8
x2 = 0.501 | 1106.6 | 1099.5 | 1092.4 | 1085.4 | 1078.3 | 1071.3 | 1064.4 | 1057.5 | 1050.6
x2 = 0.6 | 1107.4 | 1099.9 | 1092.5 | 1085.1 | 1077.8 | 1070.4 | 1063.1 | 1055.8 | 1048.5
x2 = 0.686 | 1107.6 | 1099.9 | 1092 | 1084.3 | 1076.6 | 1068.9 | 1061.2 | 1053.6 | 1046
x2 = 0.802 | 1107.2 | 1098.8 | 1090.4 | 1082 | 1073.7 | 1065.4 | 1057.1 | 1048.8 | 1040.4
x2 = 0.899 | 1105.4 | 1096.3 | 1087.3 | 1078.3 | 1069.3 | 1060.3 | 1051.3 | 1042.3 | 1033.2
